Source: PubChem BioAssay AID1963849 (Molecular Pharmacology Branch, DTP, NCI, 2024)
pIC50: −log10 of the molar value.

Tested on: 299254-011-R-J1-PDC complex spheroid viability
Test: Anticancer human tumor 299254-011-R-J1-PDC patient-derived melanoma cell line growth inhibition [POLQ]
Details: for pIC50: curve of first compound; for viability, T/C: stronger effect = lower value; active = viability on the fitted dose curve at most 10% of control; inactive = the rest
In short: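 PDC + HUVEC + MSC complex spheroids; POLQ inhibitors ± partner drugs; top conc. at/near clinical Cmax, else 10 microM (SN-38 1 microM), half-log dilutions; 37 degrees C, 5% CO2.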

[1] = second compound 0.0316 µM, first compound 0.0316 µM
[2] = second compound 0.0316 µM, first compound 0.1 µM
[3] = second compound 0.0316 µM, first compound 0.316 µM
[4] = second compound 0.0316 µM, first compound 1 µM
[5] = second compound 0.1 µM, first compound 0.0316 µM
[6] = second compound 0.1 µM, first compound 0.1 µM
[7] = second compound 0.1 µM, first compound 0.316 µM
[8] = second compound 0.1 µM, first compound 1 µM
[9] = second compound 0.316 µM, first compound 0.0316 µM
[10] = second compound 0.316 µM, first compound 0.1 µM
[11] = second compound 0.316 µM, first compound 0.316 µM
[12] = second compound 0.316 µM, first compound 1 µM
[13] = second compound 1 µM, first compound 0.0316 µM
[14] = second compound 1 µM, first compound 0.1 µM
[15] = second compound 1 µM, first compound 0.316 µM
[16] = second compound 1 µM, first compound 1 µM
[17] = second compound 3.16 µM, first compound 0.0316 µM
[18] = second compound 3.16 µM, first compound 0.1 µM
[19] = second compound 3.16 µM, first compound 0.316 µM
[20] = second compound 3.16 µM, first compound 1 µM
[21] = second compound 10 µM, first compound 0.0316 µM
[22] = second compound 10 µM, first compound 0.1 µM
[23] = second compound 10 µM, first compound 0.316 µM
[24] = second compound 10 µM, first compound 1 µM
[25] = second compound 0.0316 µM, first compound 3.16 µM
[26] = second compound 0.0316 µM, first compound 10 µM
[27] = second compound 0.1 µM, first compound 3.16 µM
[28] = second compound 0.1 µM, first compound 10 µM
[29] = second compound 0.316 µM, first compound 3.16 µM
[30] = second compound 0.316 µM, first compound 10 µM
[31] = second compound 1 µM, first compound 3.16 µM
[32] = second compound 1 µM, first compound 10 µM
[33] = second compound 3.16 µM, first compound 3.16 µM
[34] = second compound 3.16 µM, first compound 10 µM
[35] = second compound 10 µM, first compound 3.16 µM
[36] = second compound 10 µM, first compound 10 µM
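Note: spheroids exposed to drugs for one week before measurement.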
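Throughout, for viability, T/C: percent viability relative to DMSO vehicle control taken as 100%.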

CCc1c2c(nc3ccc(O)cc13)-c1cc3c(c(=O)n1C2)COC(=O)[C@]3(O)CC + COC1C(OC(N)=O)C(O)C(Oc2ccc3c(O)c(NC(=O)c4ccc(O)c(CC=C(C)C)c4)c(=O)oc3c2C)OC1(C)C
< 6.00: pIC50 (second compound 0.0316 µM) | pIC50 (second compound 0.1 µM) | pIC50 (second compound 0.316 µM) | pIC50 (second compound 1 µM) | pIC50 (second compound 3.16 µM) | pIC50 (second compound 10 µM)
inactive: viability, T/C (second compound 0.0316 µM, first compound 0.00316 µM) 109% | viability, T/C (second compound 0.0316 µM, first compound 0.01 µM) 77.5% | viability, T/C [1] 69.4% | viability, T/C [2] 65.4% | viability, T/C [3] 70.4% | viability, T/C [4] 48.9% | viability, T/C (second compound 0.1 µM, first compound 0.00316 µM) 114% | viability, T/C (second compound 0.1 µM, first compound 0.01 µM) 91.8% | viability, T/C [5] 64.3% | viability, T/C [6] 64.5% | viability, T/C [7] 66.3% | viability, T/C [8] 57.8% | viability, T/C (second compound 0.316 µM, first compound 0.00316 µM) 91.8% | viability, T/C (second compound 0.316 µM, first compound 0.01 µM) 87.1% | viability, T/C [9] 77.2% | viability, T/C [10] 64.8% | viability, T/C [11] 61.5% | viability, T/C [12] 56.2% | viability, T/C (second compound 1 µM, first compound 0.00316 µM) 112% | viability, T/C (second compound 1 µM, first compound 0.01 µM) 92.1% | viability, T/C [13] 77.9% | viability, T/C [14] 62.5% | viability, T/C [15] 64% | viability, T/C [16] 59.4% | viability, T/C (second compound 3.16 µM, first compound 0.00316 µM) 93.9% | viability, T/C (second compound 3.16 µM, first compound 0.01 µM) 77.5% | viability, T/C [17] 68.8% | viability, T/C [18] 69.4% | viability, T/C [19] 63% | viability, T/C [20] 56.6% | viability, T/C (second compound 10 µM, first compound 0.00316 µM) 99.2% | viability, T/C (second compound 10 µM, first compound 0.01 µM) 89.3% | viability, T/C [21] 71.7% | viability, T/C [22] 60.9% | viability, T/C [23] 63.6% | viability, T/C [24] 48.8%

Nc1ccn(C2OC(CO)C(O)C2(F)F)c(=O)n1 (stereo not drawn) + Cc1cccc(N(C)C(=O)C2C(O)CCN2c2nc(C)cc(C(F)(F)F)c2C#N)c1
7.19: pIC50 (second compound 0.0316 µM)
7.10: pIC50 (second compound 1 µM)
7.12: pIC50 (second compound 10 µM)
7.13: pIC50 (second compound 0.1 µM) | pIC50 (second compound 0.316 µM)
inactive: viability, T/C [1] 66.5% | viability, T/C [2] 41.4% | viability, T/C [3] 31.7% | viability, T/C [4] 37.7% | viability, T/C [25] 40.8% | viability, T/C [26] 36.6% | viability, T/C [5] 66% | viability, T/C [6] 43.7% | viability, T/C [7] 46.8% | viability, T/C [8] 38% | viability, T/C [27] 42.8% | viability, T/C [28] 43.5% | viability, T/C [9] 70.5% | viability, T/C [10] 42.3% | viability, T/C [11] 41.2% | viability, T/C [12] 42% | viability, T/C [29] 35.2% | viability, T/C [30] 35.8% | viability, T/C [13] 76.9% | viability, T/C [14] 44.1% | viability, T/C [15] 33.5% | viability, T/C [16] 33.7% | viability, T/C [31] 49.9% | viability, T/C [32] 40.3% | viability, T/C [17] 59.1% | viability, T/C [18] 43% | viability, T/C [19] 37.1% | viability, T/C [20] 41.1% | viability, T/C [33] 42.5% | viability, T/C [34] 37.6% | viability, T/C [21] 72.8% | viability, T/C [22] 44.2% | viability, T/C [23] 34.1% | viability, T/C [24] 39.8% | viability, T/C [35] 32.9% | viability, T/C [36] 48.1%
7.38: pIC50 (second compound 3.16 µM)

CCc1cc2c(N3CCc4c(cc(Cn5ccnc5)cc4-c4cn(C)nc4C(F)(F)F)C3=O)ccnc2c(OC)n1 + Nc1ccc(C#CCN(C(=O)Cc2ncc(C(F)(F)F)cc2C(F)(F)F)c2ccc(F)cc2)nn1
< 5.00: pIC50 (second compound 0.0316 µM) | pIC50 (second compound 0.1 µM) | pIC50 (second compound 0.316 µM) | pIC50 (second compound 1 µM) | pIC50 (second compound 3.16 µM) | pIC50 (second compound 10 µM)
inactive: viability, T/C [1] 118% | viability, T/C [2] 99.3% | viability, T/C [3] 93.6% | viability, T/C [4] 115% | viability, T/C [25] 109% | viability, T/C [26] 74.3% | viability, T/C [5] 101% | viability, T/C [6] 107% | viability, T/C [7] 91.4% | viability, T/C [8] 99.2% | viability, T/C [27] 89.2% | viability, T/C [28] 73.6% | viability, T/C [9] 126% | viability, T/C [10] 100% | viability, T/C [11] 107% | viability, T/C [12] 98.9% | viability, T/C [29] 97.2% | viability, T/C [30] 79.5% | viability, T/C [13] 102% | viability, T/C [14] 114% | viability, T/C [15] 103% | viability, T/C [16] 101% | viability, T/C [31] 89% | viability, T/C [32] 73.5% | viability, T/C [17] 96.9% | viability, T/C [18] 97.2% | viability, T/C [19] 89.5% | viability, T/C [20] 100% | viability, T/C [33] 84.5% | viability, T/C [34] 76.5% | viability, T/C [21] 90.4% | viability, T/C [22] 103% | viability, T/C [23] 87% | viability, T/C [24] 80.6% | viability, T/C [35] 84.8% | viability, T/C [36] 62.2%

COc1cc(C2c3cc4c(cc3C(OC3OC5COC(C)OC5C(O)C3O)C3COC(=O)C23)OCO4)cc(OC)c1O (stereo not drawn) + COC1C(OC(N)=O)C(O)C(Oc2ccc3c(O)c(NC(=O)c4ccc(O)c(CC=C(C)C)c4)c(=O)oc3c2C)OC1(C)C
inactive: viability, T/C [1] 99% | viability, T/C [2] 85.6% | viability, T/C [3] 101% | viability, T/C [4] 83.7% | viability, T/C [25] 65.8% | viability, T/C [26] 55.1% | viability, T/C [5] 93.8% | viability, T/C [6] 96.1% | viability, T/C [7] 97.4% | viability, T/C [8] 78.3% | viability, T/C [27] 65.3% | viability, T/C [28] 48.2% | viability, T/C [9] 98% | viability, T/C [10] 83.8% | viability, T/C [11] 90.9% | viability, T/C [12] 86.7% | viability, T/C [29] 75.2% | viability, T/C [30] 55.4% | viability, T/C [13] 95.2% | viability, T/C [14] 100% | viability, T/C [15] 99.3% | viability, T/C [16] 101% | viability, T/C [31] 77.2% | viability, T/C [32] 49.9% | viability, T/C [17] 95.5% | viability, T/C [18] 107% | viability, T/C [19] 108% | viability, T/C [20] 95.2% | viability, T/C [33] 63.6% | viability, T/C [34] 59.4% | viability, T/C [21] 103% | viability, T/C [22] 99.7% | viability, T/C [23] 101% | viability, T/C [24] 86.6% | viability, T/C [35] 80.6% | viability, T/C [36] 55.9%
5.04: pIC50 (second compound 0.1 µM)
5.00: pIC50 (second compound 1 µM)
< 5.00: pIC50 (second compound 0.0316 µM) | pIC50 (second compound 0.316 µM) | pIC50 (second compound 3.16 µM) | pIC50 (second compound 10 µM)
